Reference: patent US12121518B2, “PARP-1 and methods of use thereof” (The Board of Supervisors of Louisiana State University and …, priority 2017, dated 2024)

Key:
[1] = system: ARG-1, iNOS, COX2; experiment: Immunoblot of ARG-1, iNOS, COX2 and related factors in bone marrow-derived MDSCs; type: cell-based, mouse; settings: day 2 to day 4 of differentiation
Excerpt: (I) Positive control for PARP-1 trapping.
Cell fractionation, protein extraction and immunoblot analysis—Tumor tissues or cells were harvested and homogenized in RIPA lysis buffer (Santa Cruz Biotechnology) containing a cocktail of protease and phosphatase inhibitors on ice. Nuclear fractions were isolated as described (35) and the remaining chromatin pellets were washed then suspended in an isotonic buffer followed by sonication. […] Protein expression signals developed by ECL (Pierce, ThermoFisher Scientific) were determined by a G:Box Gel Image Analysis System (Syngene, Cambridge, UK) equipped with the GeneSys image capture software.

[2] = system: steroid-resistant leukemia cells; experiment: Steroid-resistant leukemia cells: cell killing and NOTCH levels; type: cell-based; settings: GSI alone: 1 nM PF-3084014 or 25 nM BMS-906024
[3] = system: trinitrobenzene sulfonic acid-induced colitis; settings: in vivo; cited from earlier work
[4] = in vivo; cited from earlier work
[5] = system: bone marrow-derived MDSCs; experiment: Bone marrow-derived MDSC differentiation in vitro: viability and CD11b/Gr1 phenotype by FACS; settings: 1 μM
[6] = 20-30 μM; cited from earlier work

NC(=O)c1cccc2cn(-c3ccc([C@@H]4CCCNC4)cc3)nc12 [niraparib]
expression of Arg1 in BM-MDSCs ([1]; 4 nM): blocked expression of Arg1

CN1C(=O)[C@@H](NC(=O)[C@H](CCC(F)(F)F)[C@H](CCC(F)(F)F)C(N)=O)N=C(c2ccccc2)c2ccccc21 [BMS-906024]
NOTCH1 levels or cell proliferation of leukemia cells [2]: do not have major effects

C[C@]1(c2nc3c(C(N)=O)cccc3[nH]2)CCCN1 [velaparib]
expression of Arg1 in BM-MDSCs ([1]; 4 nM): blocked expression of Arg1

NC(=O)c1cccc(N)c1 [3-aminobenzamide]
colitis [3]: protection

Cn1ncnc1[C@H]1c2n[nH]c(=O)c3cc(F)cc(c23)N[C@@H]1c1ccc(F)cc1 [talazoparib]
maximum tolerated dose [4]: 1 mg/day | expression of Arg1 in BM-MDSCs ([1]; 0.4 nM): blocked expression of Arg1

CNCc1ccc(-c2[nH]c3cc(F)cc4c3c2CCNC4=O)cc1 [rucaparib]
expression of Arg1 in BM-MDSCs ([1]; 4 nM): blocked expression of Arg1 | MDSC population (CD11b+/Gr1+) at day 4 [5]: appears to increase MDSC population

O=c1[nH]c2sccc2c2ccccc12 [TIQ-A]
cytotoxicity [6]: cytotoxic

CCC[C@H](N[C@H]1CCc2cc(F)cc(F)c2C1)C(=O)Nc1cn(C(C)(C)CNCC(C)(C)C)cn1 [PF-3084014]
NOTCH1 levels or cell proliferation of leukemia cells [2]: do not have major effects
